# Test results reported in patent US6417216B1 (priority 2000, dated 2002).
# Tested on: Phytophthora infestans
# Type: in vivo
# Conditions: neighbouring plot, mancozeb at 1600 g/ha
substance,measurement,value
mancozeb,"efficacy, compared with the composition of compounds (I) and (II)",about one-half
